The test system of test [1] is PC9 EGFR del19/T790M/C797S cells. Kind of test: PC9 EGFR del19/T790M/C797S cell growth inhibition test (CellTiter-Glo, 72 hours). Format: cell-based. Particulars: Homo sapiens, PC-9, PC9 cell line overexpressing EGFR del19/T790M/C797S. On the procedure:
For cell growth conditions, an RPMI Medium 1640 (1×) containing 10% FBS and 1% penicillin/straptomycin (Gibco BRL) was used.
Specifically, the cell line stored in a liquid nitrogen tank was taken out, rapidly dissolved at 37° C., and thereafter centrifuged to remove the cryopreservation medium. The recovered cell pellets were well mixed in a culture medium, put into a culture flask, and passaged under conditions of 37° C. and 5% carbon dioxide to stabilize the cells to logarithmic cell growth phase. Thereafter, cells were taken from the flask, centrifuged to remove the culture medium, washed with Dulbecco's phosphate buffered saline (DPBS), and then centrifuged again to remove DPBS, and then diluted with a culture medium to have 1×10^5 cells/ml. The diluted cells were dispensed into a 96-well plate at 100 μl per well. The compounds prepared in the above examples were each dissolved in 99.5% dimethylsulfoxide (hereinafter, DMSO, cell culture grade) to a concentration of 10 mM. The DMSO solution containing each compound was diluted with a culture medium to a concentration of 30 μM, and then tenfold serial dilution was used to prepare a solution diluted upto 0.3 nM (in order to reach a final DMSO concentration of 1% or less).
The cells treated with the test solution were cultured under conditions of 37° C. and 5% carbon dioxide for 72 hours. After the 96-well plate in which the cells were cultured was acclimated to room temperature for 30 minutes, CellTiter-Glo® Luminescent Cell Assay Reagent (CTG, Promega) was dispensed at 50 μl per well. After stabilizing luminescence signals for 10 minutes, the luminescence intensity was measured with a microplate reader.
Based on the measured value, a […] value of each compound, which is the concentration at which cell growth is inhibited by 50%, was calculated with respect to 100% of the value obtained by subtracting the initial cell density value of a well not treated with a test material from the final cell density value thereof. The GI50 value of each compound was calculated using nonlinear regression of GraphPad Prism; log[inhibitor] vs. normalized response analysis.

The subject of test [2] is Ba/F3 EGFR del19/T790M/C797S cells. Kind of test: Ba/F3 EGFR del19/T790M/C797S cell growth inhibition test (CellTiter-Glo, 72 hours).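 Also: compounds tested in tenfold steps from 10 µM down to 0.1 nM, with luminescence read on a microplate reader.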 It counts as cell-based. The conditions noted are these: Ba/F3 cell line overexpressing EGFR del19/T790M/C797S, 72 hours, CellTiter-Glo; read-out: Ba/F3 EGFR del19/T790M/C797S cells, GI50.
Procedure: Specifically, the cell line stored in a liquid nitrogen tank was taken out, rapidly dissolved at 37° C., and thereafter centrifuged to remove the cryopreservation medium. The recovered cell pellets were well mixed in a culture medium, put into a culture flask, and passaged under conditions of 37° C. and 5% carbon dioxide to stabilize the cells to the logarithmic growth phase. Thereafter, cells were taken from the flask, centrifuged to remove the culture medium, washed with Dulbecco's phosphate buffered saline (DPBS), and then centrifuged again to remove DPBS, and then diluted with a culture medium to have 1×10^5 cells/ml. The diluted cells were dispensed into a 96-well plate at 100 μl per well. […] The DMSO solution containing each compound was diluted with a culture medium to a concentration of 30 μM, and then tenfold serial dilution was used to prepare a solution diluted upto 0.3 nM (in order to reach a final DMSO concentration of 1% or less).
50 μl of a test solution of each compound was added each time to the 96-well plate in which the cells were dispensed, thus reaching a final concentration of 10 μM to 0.1 nM in 150 μl per well. The cells treated with the test solution were cultured under conditions of 37° C. and 5% carbon dioxide for 72 hours. After the 96-well plate in which the cells were cultured was acclimated to room temperature for 30 minutes, CellTiter-Glo® Luminescent Cell Assay Reagent (CTG, Promega) was dispensed at 50 μl per well. After stabilizing luminescence signals for 10 minutes, the luminescence intensity was measured with a microplate reader.
The next test addresses T1, EGFR WT (Homo sapiens, UniProt P00533).
T1 construct: purchased Thermo Fisher Scientific Inc
Kind of test: EGFR enzyme inhibitory activity evaluation (Z'-LYTE kinase assay), WT. Format: biochemical.

A further test addresses T2, EGFR L858R/T790M/C797S (Homo sapiens, UniProt P00533, C797S/L858R/T790M).
T2 construct: purchased Thermo Fisher Scientific Inc
Kind of test: EGFR enzyme inhibitory activity evaluation (Z'-LYTE kinase assay), L858R/T790M/C797S. It counts as biochemical.

A further test concerns the target T3, EGFR T790M/L858R (Homo sapiens, UniProt P00533, L858R/T790M).
T3 construct: purchased Thermo Fisher Scientific Inc
Kind of test: EGFR enzyme inhibitory activity evaluation (Z'-LYTE kinase assay), T790M/L858R. Format: biochemical.

T2 sequence (P00533 25-1210 T790M/C797S/L858R): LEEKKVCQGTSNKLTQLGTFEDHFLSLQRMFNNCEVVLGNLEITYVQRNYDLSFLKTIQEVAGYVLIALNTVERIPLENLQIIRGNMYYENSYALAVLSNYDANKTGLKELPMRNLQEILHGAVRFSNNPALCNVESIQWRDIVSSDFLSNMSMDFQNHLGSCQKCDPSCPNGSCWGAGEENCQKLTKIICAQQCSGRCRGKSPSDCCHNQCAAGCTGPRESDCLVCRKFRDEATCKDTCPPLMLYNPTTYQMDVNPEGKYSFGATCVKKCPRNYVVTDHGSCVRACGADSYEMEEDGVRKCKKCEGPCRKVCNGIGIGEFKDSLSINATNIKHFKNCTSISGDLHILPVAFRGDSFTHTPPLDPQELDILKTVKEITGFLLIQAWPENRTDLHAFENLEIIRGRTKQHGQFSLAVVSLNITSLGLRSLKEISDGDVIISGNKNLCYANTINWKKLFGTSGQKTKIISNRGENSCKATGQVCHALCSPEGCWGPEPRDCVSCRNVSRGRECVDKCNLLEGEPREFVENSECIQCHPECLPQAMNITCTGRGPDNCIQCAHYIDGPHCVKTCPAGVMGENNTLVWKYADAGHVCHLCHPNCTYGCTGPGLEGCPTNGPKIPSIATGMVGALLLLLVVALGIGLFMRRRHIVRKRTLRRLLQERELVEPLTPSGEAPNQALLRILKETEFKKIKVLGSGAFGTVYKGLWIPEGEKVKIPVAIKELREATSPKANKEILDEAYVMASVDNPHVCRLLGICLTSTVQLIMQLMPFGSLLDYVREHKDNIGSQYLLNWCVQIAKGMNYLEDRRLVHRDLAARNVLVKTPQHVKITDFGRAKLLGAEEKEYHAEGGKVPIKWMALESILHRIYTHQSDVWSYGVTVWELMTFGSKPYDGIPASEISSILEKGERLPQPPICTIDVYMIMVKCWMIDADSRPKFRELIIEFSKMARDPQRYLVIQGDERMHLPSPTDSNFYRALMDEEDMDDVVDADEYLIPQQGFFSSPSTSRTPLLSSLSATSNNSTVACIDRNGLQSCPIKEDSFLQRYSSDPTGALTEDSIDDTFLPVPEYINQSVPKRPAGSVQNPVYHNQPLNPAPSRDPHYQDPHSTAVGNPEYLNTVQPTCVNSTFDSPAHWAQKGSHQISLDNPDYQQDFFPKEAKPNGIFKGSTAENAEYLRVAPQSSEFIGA
T3 sequence (P00533 25-1210 T790M/L858R): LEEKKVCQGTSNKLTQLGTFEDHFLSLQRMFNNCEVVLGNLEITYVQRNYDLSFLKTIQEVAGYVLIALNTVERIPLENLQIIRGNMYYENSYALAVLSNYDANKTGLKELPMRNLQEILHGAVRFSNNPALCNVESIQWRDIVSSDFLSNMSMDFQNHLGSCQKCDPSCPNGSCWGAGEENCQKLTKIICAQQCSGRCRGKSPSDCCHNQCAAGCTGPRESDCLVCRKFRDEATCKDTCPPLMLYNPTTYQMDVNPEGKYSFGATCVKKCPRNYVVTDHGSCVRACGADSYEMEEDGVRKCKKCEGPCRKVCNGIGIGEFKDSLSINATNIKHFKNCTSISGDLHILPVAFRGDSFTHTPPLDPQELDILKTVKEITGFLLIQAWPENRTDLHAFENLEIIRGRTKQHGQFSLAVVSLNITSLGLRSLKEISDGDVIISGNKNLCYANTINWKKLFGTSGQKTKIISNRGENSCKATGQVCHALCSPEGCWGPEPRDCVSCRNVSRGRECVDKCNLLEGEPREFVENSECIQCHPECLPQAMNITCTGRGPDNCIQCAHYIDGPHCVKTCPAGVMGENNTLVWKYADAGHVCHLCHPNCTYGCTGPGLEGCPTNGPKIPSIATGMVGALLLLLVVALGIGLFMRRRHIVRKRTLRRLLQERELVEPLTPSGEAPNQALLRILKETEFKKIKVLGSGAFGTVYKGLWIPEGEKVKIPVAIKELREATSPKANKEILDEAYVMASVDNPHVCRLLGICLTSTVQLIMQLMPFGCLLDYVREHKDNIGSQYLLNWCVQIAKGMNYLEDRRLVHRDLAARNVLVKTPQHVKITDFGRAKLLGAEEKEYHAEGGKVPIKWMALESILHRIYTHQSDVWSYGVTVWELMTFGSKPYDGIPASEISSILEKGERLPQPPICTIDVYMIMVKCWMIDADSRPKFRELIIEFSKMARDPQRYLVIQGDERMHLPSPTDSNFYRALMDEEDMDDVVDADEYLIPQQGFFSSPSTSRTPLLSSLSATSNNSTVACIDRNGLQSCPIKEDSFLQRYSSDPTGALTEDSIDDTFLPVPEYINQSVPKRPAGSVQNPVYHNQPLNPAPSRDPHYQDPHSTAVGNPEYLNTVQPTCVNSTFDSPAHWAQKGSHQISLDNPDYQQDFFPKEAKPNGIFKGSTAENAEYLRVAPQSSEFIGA
T1 sequence (P00533 25-1210): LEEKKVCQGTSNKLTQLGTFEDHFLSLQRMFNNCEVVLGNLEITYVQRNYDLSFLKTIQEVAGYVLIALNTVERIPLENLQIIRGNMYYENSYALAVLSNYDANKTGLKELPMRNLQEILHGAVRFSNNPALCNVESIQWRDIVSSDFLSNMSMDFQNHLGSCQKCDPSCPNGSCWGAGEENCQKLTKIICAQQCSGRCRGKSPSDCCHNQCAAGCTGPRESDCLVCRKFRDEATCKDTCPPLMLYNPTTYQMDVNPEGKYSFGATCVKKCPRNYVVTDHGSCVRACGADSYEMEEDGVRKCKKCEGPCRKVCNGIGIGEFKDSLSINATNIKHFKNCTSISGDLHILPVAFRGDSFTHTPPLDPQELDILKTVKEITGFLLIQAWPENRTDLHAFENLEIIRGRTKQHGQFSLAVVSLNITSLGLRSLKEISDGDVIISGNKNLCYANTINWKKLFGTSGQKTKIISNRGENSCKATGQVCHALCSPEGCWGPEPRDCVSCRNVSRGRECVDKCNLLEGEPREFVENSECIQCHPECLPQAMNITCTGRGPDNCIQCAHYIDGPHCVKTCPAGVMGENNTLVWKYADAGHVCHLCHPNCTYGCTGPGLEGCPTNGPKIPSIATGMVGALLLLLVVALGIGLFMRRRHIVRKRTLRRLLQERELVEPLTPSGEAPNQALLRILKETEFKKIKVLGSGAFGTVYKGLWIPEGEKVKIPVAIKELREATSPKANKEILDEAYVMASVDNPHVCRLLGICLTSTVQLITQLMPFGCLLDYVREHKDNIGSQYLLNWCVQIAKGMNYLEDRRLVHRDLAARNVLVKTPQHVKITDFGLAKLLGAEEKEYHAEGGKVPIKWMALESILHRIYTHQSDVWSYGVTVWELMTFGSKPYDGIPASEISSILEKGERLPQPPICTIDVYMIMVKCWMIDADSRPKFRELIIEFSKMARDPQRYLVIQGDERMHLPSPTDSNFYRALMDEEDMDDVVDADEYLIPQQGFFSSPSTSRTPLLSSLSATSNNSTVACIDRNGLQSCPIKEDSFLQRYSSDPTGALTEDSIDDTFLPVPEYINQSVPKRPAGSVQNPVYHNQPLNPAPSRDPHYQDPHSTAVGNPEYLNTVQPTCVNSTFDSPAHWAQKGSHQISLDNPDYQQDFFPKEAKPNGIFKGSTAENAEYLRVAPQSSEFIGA
Procedure for EGFR L858R/T790M/C797S: (§1) For this, a Z′-LYTE kinase assay kit (ThermoFisher Scientific, PV3191) was used, and the kinases used were purchased from Thermo Fisher Scientific Inc. A simple test method is summarized as follows.
(§2) Each kinase was diluted to a concentration of 7-45 ng/assay using a kinase buffer (50 mM HEPES (pH 7.5), 10 mM MgCl2, 4 mM MnCl2, 2 mM DTT, 1 mM EGTA, 0.01% BRIJ-35, or 50 mM HEPES (pH 6.5), 10 mM MgCl2, 1 mM EGTA, 0.01% BRIJ-35, 0.02% NaN3). The test was performed on 384 well plates (well polystyrene flat-bottomed plates). First, after 5 μl of a diluted compound solution was added, a protein substrate at a concentration as specified in the kit, 10 μl of a kinase mixed solution, and 5 μl of a 10-100 μM ATP solution were added to the sample and reacted at room temperature for 60 minutes in a stirrer. Thereafter, 10 μl of a coloring solution was added each to cause a fluorescence reaction of the peptide substrate for 60 minutes, and 10 μl of a stopping solution was added each to terminate the reaction.
Procedure for EGFR T790M/L858R: as §1, §2
Procedure for EGFR WT: as §1, §2

In the case of `CCN1CCN(c2ccc(Nc3nc(Nc4ccccc4N(C)S(C)(=O)=O)c4cc[nH]c4n3)cc2F)CC1` [Example 8, N-(2-((2-((3-fluoro-4-(4-ethylpiperazin-1-yl)phenyl)amino)-7H-pyrrolo[2,3-d]pyrimidine-4-yl)amino)phenyl)-N-methylmethanesulfonamide], the GI50 in test [1] stood at 201 nM; in test [2], 10 nM. Take `CCCN1CCN(c2ccc(Nc3nc(Nc4ccccc4N(C)S(C)(=O)=O)c4cc[nH]c4n3)cc2F)CC1` [Example 10, N-(2-((2-((3-fluoro-4-(4-propylpiperazin-1-yl)phenyl)amino)-7H-pyrrolo[2,3-d]pyrimidine-4-yl)amino)phenyl)-N-methylmethanesulfonamide]: in test [1], the GI50 is 538 nM. Still for that read-out and setting: the figure for `CN(c1ccccc1Nc1nc(Nc2ccc(N3CCN(C4CC4)CC3)c(F)c2)nc2[nH]ccc12)S(C)(=O)=O` [Example 11, N-(2-((2-((3-fluoro-4-(4-cyclopropylpiperazin-1-yl)phenyl)amino)-7H-pyrrolo[2,3-d]pyrimidine-4-yl)amino)phenyl)-N-methylmethanesulfonamide] is 641 nM. Turning to `CN1CCN(C2CCN(c3ccc(Nc4nc(Nc5ccccc5N(C)S(C)(=O)=O)c5cc[nH]c5n4)cc3F)CC2)CC1` [Example 13, N-(2-((2-((3-fluoro-4-(4-(4-methylpiperazin-1-yl)piperidin-1-yl)phenyl)amino)-7H-pyrrolo[2,3-d]pyrimidine-4-yl)amino)phenyl)-N-methylmethanesulfonamide], the GI50 in test [1] turned out to be 267 nM; in test [2] it was 11 nM. Turning to `CCN1CCN(C2CCN(c3ccc(Nc4nc(Nc5ccccc5N(C)S(C)(=O)=O)c5cc[nH]c5n4)cc3F)CC2)CC1` [Example 14, N-(2-((2-((3-fluoro-4-(4-(4-ethylpiperazin-1-yl)piperidin-1-yl)phenyl)amino)-7H-pyrrolo[2,3-d]pyrimidine-4-yl)amino)phenyl)-N-methylmethanesulfonamide], the results for the GI50 in test [1] and in test [2] were 126 nM and 15 nM, respectively. Besides, the half-maximal inhibitory concentration (IC50) (as a rule, the point on the concentration scale where inhibition reaches its midpoint) worked out at 4490 nM against EGFR WT, 4 nM at EGFR L858R/T790M/C797S and 2.9 nM at EGFR T790M/L858R. Consider `CC(C)N1CCN(C2CCN(c3ccc(Nc4nc(Nc5ccccc5N(C)S(C)(=O)=O)c5cc[nH]c5n4)cc3F)CC2)CC1` [Example 15, N-(2-((2-((3-fluoro-4-(4-(4-isopropylpiperazin-1-yl)piperidin-1-yl)phenyl)amino)-7H-pyrrolo[2,3-d]pyrimidine-4-yl)amino)phenyl)-N-methylmethanesulfonamide], for which the GI50 in test [1] was found to be 131 nM. As to `CCCN1CCN(C2CCN(c3ccc(Nc4nc(Nc5ccccc5N(C)S(C)(=O)=O)c5cc[nH]c5n4)cc3F)CC2)CC1` [Example 16, N-(2-((2-((3-fluoro-4-(4-(4-propylpiperazin-1-yl)piperidin-1-yl)phenyl)amino)-7H-pyrrolo[2,3-d]pyrimidine-4-yl)amino)phenyl)-N-methylmethanesulfonamide], in test [1], the GI50 came out at 160 nM. For the same molecule, the IC50 against EGFR WT stood at 1530 nM; at EGFR L858R/T790M/C797S, 4 nM; against EGFR T790M/L858R, 2.7 nM. Turning to `CN(c1ccccc1Nc1nc(Nc2ccc(N3CCC(N4CCN(C5CC5)CC4)CC3)c(F)c2)nc2[nH]ccc12)S(C)(=O)=O` [Example 17, N-(2-((2-((3-fluoro-4-(4-(4-cyclopropylpiperazin-1-yl)piperidin-1-yl)phenyl)amino)-7H-pyrrolo[2,3-d]pyrimidine-4-yl)amino)phenyl)-N-methylmethanesulfonamide], the GI50 in test [1] stood at 311 nM. On the same count and under the same terms, the figure for `CCN1CCN(c2c(F)cc(Nc3nc(Nc4ccccc4N(C)S(C)(=O)=O)c4cc[nH]c4n3)cc2F)CC1` [Example 26, N-(2-((2-((4-(4-ethylpiperazin-1-yl)-3,5-difluorophenyl)amino)-7H-pyrrolo[2,3-d]pyrimidine-4-yl)amino)phenyl)-N-methylmethanesulfonamide] is 369 nM. As to `CN1CC2(C1)CN(c1ccc(Nc3nc(Nc4ccccc4N(C)S(C)(=O)=O)c4cc[nH]c4n3)cc1F)C2` [Example 36, N-(2-((2-((3-fluoro-4-(6-methyl-2,6-diazaspiro[3.3]heptan-2-yl)phenyl)amino)-7H-pyrrolo[2,3-d]pyrimidine-4-yl)amino)phenyl)-N-methylmethanesulfonamide], the half-maximal inhibitory concentration (IC50) on EGFR WT worked out at 2180 nM; at EGFR L858R/T790M/C797S, 13 nM; against EGFR T790M/L858R, 12 nM. Moreover, the GI50 in test [2] amounted to 20 nM. As to `CN1CCN(c2ccc(Nc3nc(Nc4ccccc4NS(C)(=O)=O)c4cc[nH]c4n3)cc2F)CC1` [Example 42, N-(2-((2-((3-fluoro-4-(4-methylpiperazin-1-yl)phenyl)amino)-7H-pyrrolo[2,3-d]pyrimidine-4-yl)amino)phenyl)methanesulfonamide], the values for the GI50 in test [1] and in test [2] were 951 nM and 123 nM, respectively. `CCN1CCN(c2ccc(Nc3nc(Nc4ccccc4NS(C)(=O)=O)c4cc[nH]c4n3)cc2F)CC1` [Example 49, N-(2-((2-((4-(4-ethylpiperazin-1-yl)-3-fluorophenyl)amino)-7H-pyrrolo[2,3-d]pyrimidine-4-yl)amino)phenyl)methanesulfonamide] had a GI50 in test [1] of 858 nM.

As for `CCN1CCN(C2CCN(c3ccc(Nc4nc(Nc5ccccc5NS(C)(=O)=O)c5cc[nH]c5n4)cc3F)CC2)CC1` [Example 53, N-(2-((2-((4-(4-(4-ethylpiperazin-1-yl)piperidin-1-yl)-3-fluorophenyl)amino)-7H-pyrrolo[2,3-d]pyrimidine-4-yl)amino)phenyl)methanesulfonamide], the GI50 was determined as 698 nM in test [1] and 7 nM in test [2]. `CCN1CCN(C2CCN(c3ccc(Nc4nc(Nc5ccccc5N(C)S(=O)(=O)CC)c5cc[nH]c5n4)cc3F)CC2)CC1` [Example 54, N-(2-((2-((4-(4-(4-ethylpiperazin-1-yl)piperidin-1-yl)-3-fluorophenyl)amino)-7H-pyrrolo[2,3-d]pyrimidine-4-yl)amino)phenyl)-N-methylethanesulfonamide] showed a GI50 in test [1] of 530 nM. Still for that read-out and setting: under `CCN1CCC2(CCN(c3ccc(Nc4nc(Nc5ccccc5N(C)S(=O)(=O)CC)c5cc[nH]c5n4)cc3F)CC2)C1` [Example 56, N-(2-((2-((4-(2-ethyl-2,8-diazaspiro[4.5]decan-8-yl)-3-fluorophenyl)amino)-7H-pyrrolo[2,3-d]pyrimidine-4-yl)amino)phenyl)-N-methylethanesulfonamide] stands 564 nM; under `CN1CCN(C2CCN(c3ccc(Nc4nc(Nc5ccccc5N(C)S(C)(=O)=O)c5ccn(C)c5n4)cc3F)CC2)CC1` [Example 65, N-(2-((2-((3-fluoro-4-(4-(4-methylpiperazin-1-yl)piperidin-1-yl)phenyl)amino)-7-methyl-7H-pyrrolo[2,3-d]pyrimidine-4-yl)amino)phenyl)-N-methylmethanesulfonamide], 3380 nM.
